# Assay results taken from patent publication US11535630B2, “Apelin receptor (APJ) agonists and uses thereof” (Research Triangle Institute, priority 2015, dated 2022).
# Molecular target: T1, apelin receptor (APJ) (Homo sapiens, UniProt P35414)
# T1 sequence (P35414 1-380): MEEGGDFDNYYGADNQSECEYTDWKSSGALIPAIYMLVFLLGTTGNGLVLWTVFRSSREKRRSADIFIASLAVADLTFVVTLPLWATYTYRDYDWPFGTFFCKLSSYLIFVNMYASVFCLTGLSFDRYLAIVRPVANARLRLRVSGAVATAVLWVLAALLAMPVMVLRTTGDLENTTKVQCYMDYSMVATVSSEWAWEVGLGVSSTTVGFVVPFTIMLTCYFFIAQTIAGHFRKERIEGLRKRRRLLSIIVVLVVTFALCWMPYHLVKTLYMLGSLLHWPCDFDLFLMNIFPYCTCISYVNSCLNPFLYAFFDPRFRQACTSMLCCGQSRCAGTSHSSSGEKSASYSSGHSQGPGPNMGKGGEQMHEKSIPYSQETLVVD
# Assay: In vitro apelin agonist activity (methods of Giddings et al., Apelin-13 as positive control)
# Format: cell-based
# Conditions: EC50 (nM) Ave, in vitro apelin agonist activity, methods of Giddings et al., Apelin-13 as positive control
# Excerpt: Characterization of the Apelin Agonist Activity of the Compounds
# 1:39-47, the contents of which are hereby incorporated by reference in its entirety. Using the methods described in Giddings et al. and Apelin-13 as a positive control.
row,Structure (SMILES),EC50
1,CN(C[C@@H](CC(=O)NC1CCC1)NC(=O)c1cc(-c2ccccc2C(F)(F)F)n(C2CCCC2)n1)C1CCCCC1 [compound 547],5120 nM

# Same assay, conditions: in vitro apelin agonist activity, methods of Giddings et al., Apelin-13 as positive control; read-out: EC50 (nM) Ave
row,EC50,Structure (SMILES)
1,23 nM,"C[C@@H](C(=O)O)[C@H](CCN1CCCC(F)(F)C1)NC(=O)c1cc(-c2ccccc2C(F)(F)F)n(C2CCCC2)n1 [compound 597, (2R,3S)-3-({1-cyclopentyl-5-[2-(trifluoromethyl)phenyl]-1H-pyrazol-3-yl}formamido)-5-(3,3-difluoropiperidin-1-yl)-2-methylpentanoic acid]"
2,1670 nM,O=C(O)C[C@H](CCN1CCCC(F)(F)C1)NC(=O)c1cc(-c2cccnc2Cl)n(C2CCCC2)n1 [compound 468]
3,109 nM,"O=C(O)C[C@H](CCN1C[C@H](F)[C@@H](F)C1)NC(=O)c1cc(-c2ccccc2C(F)(F)F)n(C2CCCC2)n1 [compound 582, (3S)-3-({1-cyclopentyl-5-[2-(trifluoromethyl)phenyl]-1H-pyrazol-3-yl}formamido)-5-[(3S,4S)-3,4-difluoropyrrolidin-1-yl]pentanoic acid]"
4,182 nM,"O=C(O)C[C@H](CCN1C(=O)CCC1=O)NC(=O)c1cc(-c2ccccc2C(F)(F)F)n(C2CCCC2)n1 [compound 643, (3S)-3-({1-cyclopentyl-5-[2-(trifluoromethyl)phenyl]-1H-pyrazol-3-yl}formamido)-5-(2,5-dioxopyrrolidin-1-yl)pentanoic acid]"
5,> 10000 nM,"O=C(O)C[C@H](CN1CCC(F)(F)C1)NC(=O)c1cc(-c2ccccc2C(F)(F)F)n(C2CCCC2)n1 [compound 518, (3R)-3-({1-cyclopentyl-5-[2-(trifluoromethyl)phenyl]-1H-pyrazol-3-yl}formamido)-4-(3,3-difluoropyrrolidin-1-yl)butanoic acid]"
6,502 nM,"CC1(C)CN(CC[C@@H](CC(=O)O)NC(=O)c2cc(-c3ccccc3C(F)(F)F)n(C3CCCC3)n2)C1 [compound 588, (3S)-3-({1-cyclopentyl-5-[2-(trifluoromethyl)phenyl]-1H-pyrazol-3-yl]formamido)-5-(3,3-dimethylazetidin-1-yl)pentanoic acid]"
7,509 nM,"CC(F)(F)c1ccccc1-c1cc(C(=O)N[C@@H](CCN2CCC(=O)CC2(C)C)CC(=O)O)nn1C1CCCC1 [compound 611, (3S)-3-({1-cyclopentyl-5-[2-(1,1-difluoroethyl)phenyl]-1H-pyrazol-3-yl}formamido)-5-(2,2-dimethyl-4-oxopiperidin-1-yl)pentanoic acid]"
8,718 nM,"CCCn1nc(C(=O)N[C@@H](CCN2CCCC(F)(F)C2)CC(=O)O)cc1-c1ccccc1C(F)(F)F [compound 580, (3S)-5-(3,3-difluoropiperidin-1-yl)-3-({1-propyl-5-[2-(trifluoromethyl)phenyl]-1H-pyrazol-3-yl}formamido)pentanoic acid]"
9,255 nM,"O=C(O)C[C@H](CCNC1CC(F)(F)C1)NC(=O)c1cc(-c2ccccc2C(F)(F)F)n(C2CCCC2)n1 [compound 548, (3S)-3-({1-cyclopentyl-5-[2-(trifluoromethyl)phenyl]-1H-pyrazol-3-yl}formamido)-5-[(3,3-difluorocyclobutyl)amino]pentanoic acid]"
10,126 nM,O=C(O)C[C@H](CCN1CCCC(F)(F)C1)NC(=O)c1cc(-c2ccc(F)cc2C(F)(F)F)n(C2CCCC2)n1 [compound 554]
11,> 10 nM,"O=C(O)C[C@H](CCN1CCCC(F)(F)C1)NC(=O)c1cc(-c2c(Cl)cccc2C(F)(F)F)n(C2CCCC2)n1 [compound 556, (3S)-3-({-[2-chloro-6-(trifluoromethyl)phenyl]-1-cyclopentyl-1H-pyrazol-3-yl}formamido)-5-(3,3-difluoropiperidin-1-yl)pentanoic acid]"
12,920 nM,"O=C(C[C@H](CCN1CCC(F)(F)CC1)NC(=O)c1cc(-c2ccccc2C(F)(F)F)n(C2CCCC2)n1)NCc1ccccc1 [compound 439, (3S)-N-benzyl-3-({1-cyclopentyl-5-[2-(trifluoromethyl)phenyl]-1H-pyrazol-3-yl}formamido)-5-(4,4-difluoropiperidin-1-yl)pentanamide]"
13,355 nM,"O=C(O)C[C@H](CCN1CCCCC1=O)NC(=O)c1cc(-c2ccccc2C(F)(F)F)n(C2CCCC2)n1 [compound 587, (3S)-3-({1-cyclopentyl-5-[2-(trifluoromethyl)phenyl]-1H-pyrazol-3-yl}formamido)-5-(2-oxopiperidin-1-yl)pentanoic acid]"
14,98 nM,"CC1(F)CCN(CC[C@@H](CC(=O)O)NC(=O)c2cc(-c3ccccc3C(F)(F)F)n(C3CCCC3)n2)C1 (stereo partly drawn) [compound 609, (3S)-3-({1-cyclopentyl-5-[2-(trifluoromethyl)phenyl]-1H-pyrazol-3-yl}formamido)-5-(3-fluoro-3-methylpyrrolidin-1-yl)pentanoic acid]"

# Continued, molecule first:
row,Structure (SMILES),EC50
1,"COc1cccc(OC)c1-c1cc(C(=O)N[C@@H](CCC2CCN(C)CC2)CC(=O)NC2CCC2)nn1C1CCCC1 [compound 421, (3S)-N-cyclobutyl-3-{[1-cyclopentyl-5-(2,6-dimethoxyphenyl)-1H-pyrazol-3-yl]formamido}-5-(1-methylpiperidin-4-yl)pentanamide]",3310 nM
2,"COc1cccc(OC)c1-c1cc(C(=O)N[C@@H](CCc2ccccc2)C(=O)Nc2nnn[nH]2)nn1C1CCCC1 [compound 395, (2S)-2-{[1-cyclopentyl-5-(2,6-dimethoxyphenyl)-1H-pyrazol-3-yl]formamido}-4-phenyl-N-(1H-1,2,3,4-tetrazol-5-yl)butanamide]",> 10000 nM
3,"O=C(C[C@H](CCN1CCCC(F)(F)C1)NC(=O)c1cc(-c2ccncc2Cl)n(C2CCCC2)n1)NC1CCC1 [compound 457, (3S)-3-{[5-(3-chloropyridin-4-yl)-1-cyclopentyl-1H-pyrazol-3-yl]formamidol}-N-cyclobutyl-5-(3,3-difluoropiperidin-1-yl)pentanamide]",1320 nM
4,"O=C(C[C@H](CCN1C2CCCC1CC2)NC(=O)c1cc(-c2ccccc2C(F)(F)F)n(C2CCCC2)n1)NC1CCC1 [compound 498, (3S)-5-{8-azabicyclo[3.2.1]octan-8-yl}-N-cyclobutyl-3-({1-cyclopentyl-5-[2-(trifluoromethyl)phenyl]-1H-pyrazol-3-yl}formamido)pentanamide]",105 nM
5,"CCN(C(=O)c1cc(-c2c(F)cccc2OC)n(C2CCCC2)n1)[C@@H](CCN1CCCCC1)CC(=O)NC1CCC1 [compound 345, (3S)-N-cyclobutyl-3-{1-[1-cyclopentyl-5-(2-fluoro-6-methoxyphenyl)-1H-pyrazol-3-yl]-N-ethylformamido}-5-(piperidin-1-yl)pentanamide]",> 10000 nM
6,"CC(C)Cn1nc(C(=O)N[C@@H](CCN2CCCC(F)(F)C2)CC(=O)O)cc1-c1ccccc1C(F)(F)F [compound 565, (3S)-5-(3,3-difluoropiperidin-1-yl)-3-{[1-(2-methylpropyl)-5-[2-(trifluoromethyl)phenyl]-1H-pyrazol-3-yl]formamido}pentanoic acid]",544 nM
7,"O=C(C[C@H](CCN1CCCCC1)NC(=O)c1cc(-c2ccccn2)n(C2CCCC2)n1)NC1CCC1 [compound 375, (3S)-N-cyclobutyl-3-{[1-cyclopentyl-5-(pyridin-2-yl)-1H-pyrazol-3-yl]formamido}-5-(piperidin-1-yl)pentanamide]",> 10000 nM
8,"O=C(CCNC(=O)c1cc(-c2ccccc2C(F)(F)F)n(C2CCCC2)n1)NCc1ccccc1 [compound 442, N-benzyl-3-({1-cyclopentyl-5-[2-(trifluoromethyl)phenyl]-1H-pyrazol-3-yl}formamido)propanamide]",> 10000 nM
9,"O=C(C[C@H](CCN1CCCC(F)(F)C1)NC(=O)c1cc(-c2ncccc2C(F)(F)F)n(C2CCCC2)n1)NC1CCC1 [compound 479, (3S)-N-cyclobutyl-3-({1-cyclopentyl-5-[3-(trifluoromethyl)pyridin-2-yl]-1H-pyrazol-3-yl}formamido)-5-(3,3-difluoropiperidin-1-yl)pentanamide]",0.86 nM
10,"CCOc1cc(F)c(-c2cc(C(=O)N[C@@H](CCN3CCCCC3)CC(=O)NC3CCC3)nn2C2CCCC2)c(F)c1 [compound 355, (3S)-N-cyclobutyl-3-{[1-cyclopentyl-5-(4-ethoxy-2,6-difluorophenyl)-1H-pyrazol-3-yl]formamido}-5-(piperidin-1-yl)pentanamide]",5080 nM
11,"COc1cccc(OC)c1-c1cc(C(=O)N[C@@H](CCc2ccc(F)cc2)CC(=O)NC2CCC2)nn1C1CCCC1 [compound 416, (3S)-N-cyclobutyl-3-{[1-cyclopentyl-5-(2,6-dimethoxyphenyl)-1H-pyrazol-3-yl]formamido}-5-(4-fluorophenyl)pentanamide]",606 nM
12,"COc1cccc(OC)c1-c1cc(C(=O)N[C@@H](CCN2C(C)CCCC2C)CC(=O)NC2CCC2)nn1C1CCCC1 (stereo partly drawn) [compound 329, (3S)-N-cyclobutyl-3-{[1-cyclopentyl-5-(2,6-dimethoxyphenyl)-1H-pyrazol-3-yl]formamido}-5-(2,6-dimethylpiperidin-1-yl)pentanamide]",170 nM
13,"COc1cccc(OC)c1-c1cc(C(=O)N[C@@H](CCN2CCCCC2)CC(=O)Nc2nccs2)nn1C1CCCC1 [compound 338, (3S)-3-{[1-cyclopentyl-5-(2,6-dimethoxyphenyl)-1H-pyrazol-3-yl]formamido}-5-(piperidin-1-yl)-N-(1,3-thiazol-2-yl)pentanamide]",12 nM
